Read-outs that look alike come from different tables or passages of the source. [BNA] = bridged nucleic acid sugar (2',4'-BNA), type not further given; d = 2'-deoxy (DNA)
Legend:
[1] = tested on: EGFR expressing cells (A431); assay: Saponin titration on fixed 10 pM cetuximab-saporin, cell viability (MTS); format: cell-based; conditions: without cetuximab-saporin
[2] = tested on: A431 (EGFR++) cells; assay: Saponin derivative titration in presence and absence of […] EGFdianthin, cell viability; format: cell-based; conditions: for IC50: read-out: Toxicity as single compound
[3] = tested on: A2058 (EGFR−) cells; assay: as above; format: cell-based
[4] = Critical micellar concentration (CMC) by ANS fluorescence; format: physicochemical; conditions: for CMC value: PBS
Method in brief: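 Saponin solutions (dry-weight concentrations 1–1400 μM) in purified water or Dulbecco's PBS+/+ were mixed with ANS, 75.86 μM, 6 μg per sample. ANS fluorescence was read at 355 nm excitation and 460 nm emission. CMC was taken from the rise in ANS fluorescence yield as the dye partitions into micelles.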

[5] = tested on: HeLa cells; assay: Pilot cell-based bioassay: 10 μg/ml saponin with or without 1.5 pM dianthin-EGF, 72 h, relative cell viability; parameters: key to Cell killing activity (+ or −): Cell killing activity (+ or −); Cell killing activity (+ or −); conditions: for Cell viability after 72 h: 10 microgram/ml saponin + […] dianthin-EGF, HeLa cells
Protocol: HeLa cells were incubated for 72 h with the following constructs and cell viability before and after the 72 h-incubation was assessed. In the experiments, cells were exposed to 1.5 pM dianthin-EGF conjugate. A negative control were cells incubated with buffer vehicle and 10 microgram/ml saponin, without dianthin-EGF. Cell viability was set to 100% for the control in which both saponin and EGF-dianthin were omitted. […] Cell viability after 72 h was essentially 0%. For the chemically modified saponin variants, 10 microgram/ml saponin was tested in combination with 1.5 pM dianthin-EGF.

[6] = tested on: HeLa (EGFR+) cells; assay: Saponin titration in presence and absence of […] EGFdianthin, cell viability; format: cell-based; conditions: for IC50: read-out: General toxicity (IC50 / highest concentration)
Protocol: To extend this test, saponins from other sources were analyzed. A saponin purified from a root extract of Gypsophila elegans M.Bieb. […] FIG. 63C).

[7] = tested on: HeLa cells; assay: cells; format: cell-based
Protocol: (§1) (FIGS. 66a and 66B). Next toxicity was determined, for this the modified saponins were titrated on HeLa and A431 cells. […] Next toxicity was determined, for this the modified saponins were titrated on HeLa and A431 cells.

[8] = tested on: EGFR expressing cells (A431); assay: Saponin titration on fixed 10 pM EGFdianthin, cell viability (MTS); format: cell-based; conditions: without EGFdianthin
[9] = tested on: human red blood cells; assay: cells; format: cell-based; conditions: Homo sapiens, Erythrocyte
[10] = tested on: EGFR expressing cells (HeLa); format: cell-based; conditions: HeLa; + 5 pM EGFdianthin; read-out: IC50 endosomal escape enhancing activity
[11] = tested on: A431 cells; assay: cells; format: cell-based; conditions: Homo sapiens
Protocol: as §1

[12] = tested on: HSP27 mRNA; assay: HSP27 mRNA gene silencing analysis in A431 cells; format: cell-based; conditions: SO1861-Ald-EMCH alone
Description: (§2) RNA from cells was isolated and analysed according to standard protocols (Biorad). qPCR primers that were used are indicated in Table A10.

[13] = pH dependent hydrolysis of the hydrazone bond (HCl solution pH 3, MALDI-TOF-MS); format: physicochemical; conditions: HCl solution at pH 3
[14] = tested on: HSP27 mRNA; assay: HSP27 mRNA gene silencing analysis in SK-BR-3 cells; format: cell-based; conditions: in the presence of 4000 nM or 4829 nM SO1861-Ald-EMCH; read-out: IC50(SK-BR3) HSP27 gene silencing
Description: as §2

[15] = 10 μg/ml SO1861 or SO1861-derivative + […] EGFdianthin
[16] = 10 μg/ml SO1861 or SO1861-derivative alone

Compound: CC(=O)OC1C(C)OC(OC2C(C)OC(OC(=O)[C@]34CCC(C)(C)CC3C3=CCC5[C@@]6(C)CC[C@H](OC7OC(C(=O)O)C(O)C(OC8OCC(O)C(O)C8O)C7OC7OC(CO)C(O)C(O)C7O)[C@@](C)(C=O)C6CC[C@@]5(C)[C@]3(C)C[C@H]4O)C(OC3OC(C)C(OC4OCC(O)C(OC5OC(CO)C(O)C(O)C5O)C4O)C(O)C3O)C2O)C(O)C1OC1OCC(O)C(O)C1O (some centres unmarked) [SO1861, reference compound]
- Cell killing activity of saponin alone [1]: no cell killing activity
- Toxicity as single compound ([2]; A431, without EGFdianthin): strong cell viability reduction
- Toxicity as single compound ([3]; without EGFdianthin): strong cell viability reduction
- CMC value [4]: 185 µM
- CMC ([4]; Table A7, determined in PBS): 185 ± 19 µM
- Cell killing activity (+ or −) [5, 15]: +
- Cell killing activity (+ or −) [5, 16]: −
- Cell viability after 72 h [5]: ~0%
- General toxicity (IC50 / highest concentration) ([6]; in absence of EGFdianthin): strong cell viability reduction
- IC50 ([7]; saponin alone, read-out: IC50 toxicity): 1000 nM
- Cell killing activity of saponin alone [8]: no cell killing activity

Compound: CC(=O)OC1C(C)OC(OC2C(C)OC(OC(=O)[C@]34CCC(C)(C)CC3C3=CCC5[C@@]6(C)CC[C@H](OC7OC(C(=O)O)C(O)C(OC8OCC(O)C(O)C8O)C7OC7OC(CO)C(O)C(O)C7O)[C@@](C)(/C=N/NC(=O)CCCCCN7C(=O)C=CC7=O)C6CC[C@@]5(C)[C@]3(C)C[C@H]4O)C(OC3OC(C)C(OC4OCC(O)C(OC5OC(CO)C(O)C(O)C5O)C4O)C(O)C3O)C2O)C(O)C1OC1OCC(O)C(O)C1O (some centres unmarked) [SO1861-Ald-EMCH]
- Cell killing activity of saponin alone [1]: no cell killing activity
- IC50 ([9]; Table A5, read-out: IC50 nM (hemolysis)): > 1e+06 nM
- IC50 ([9]; Table A6, read-out: IC50 nM (hemolysis)): > 1e+06 nM
- IC50 ([9]; read-out: IC50 hemolytic activity): > 1e+06 nM
- IC50 ([2]; Homo sapiens, A-431): > 25 µM
- IC50 ([3]; Homo sapiens, read-out: Toxicity as single compound): > 25 µM
- CMC value [4]: > 800 µM
- Cell killing activity (+ or −) [5, 15]: +
- Cell killing activity (+ or −) [5, 16]: −
- Cell viability after 72 h [5]: reduced cell viability
- IC50 ([6]; Homo sapiens): > 25 µM
- IC50 [10]: 2 µM
- IC50 ([7]; Homo sapiens, HeLa, Table A5, saponin alone, read-out: IC50 nM (Toxicity)): > 100000 nM
- IC50 ([7]; Homo sapiens, HeLa, saponin alone, read-out: IC50 toxicity): > 100000 nM
- IC50 ([11]; A-431, Table A6, saponin alone, read-out: IC50 nM (Toxicity)): 30000 nM
- IC50 ([11]; A-431, text, saponin alone, read-out: IC50 toxicity): 30000 nM
- HSP27 gene silencing activity alone [12]: no HSP27 gene silencing activity
- Hydrolysis of the hydrazone bond [13]: gets cleaved
- Cell killing activity of saponin alone [8]: no cell killing activity

Compound: CC(=O)OC1C(C)OC(OC2C(C)OC(OC(=O)C34CCC(C)(C)CC3C3=CCC5C6(C)CCC(OC7OC(C(=O)O)C(O)C(OC8OCC(O)C(O)C8O)C7OC7OC(CO)C(O)C(O)C7O)C(C)(C=NNC(=O)CCOCCOCCOCCOCCN=[N+]=[N-])C6CCC5(C)C3(C)CC4O)C(OC3OC(C)C(OC4OCC(O)C(OC5OC(CO)C(O)C(O)C5O)C4O)C(O)C3O)C2O)C(O)C1OC1OCC(O)C(O)C1O (centres unmarked)
- IC50 ([2]; A431, without EGFdianthin): > 10 µM
- Cell killing activity (+ or −) [5, 15]: +
- Cell killing activity (+ or −) [5, 16]: −
- IC50 ([6]; in absence of EGFdianthin): > 10 µM

Compound: HSP27BNA: antisense BNA oligo against HSP27 mRNA, 5′-GGCacagccagtgGCG-3′ (antisense GGCACAGCCAGTGGCG; sugars from the 5' end [BNA]3 d10 [BNA]3, backbone and methylation of C not given here)
- IC50 [14]: 0.002 µM

— patent publication US20230277612A1, “SAPONIN DERIVATIVES FOR USE IN MEDICINE” (priority 2020, published 2023)
